# System: CYP3A4
# Experiment: Human CYP 3A4 induction assay (mRNA, cryopreserved human hepatocytes)
# Assay type: in vitro ADME
# Details: human hepatocytes, 10 uM test compound, 72 hours, mRNA, percent of control (rifampin positive control)
# Experimental: Human CYP 3A4 Induction Assay
# Cryopreserved human hepatocytes were seeded in 96-well collagen coated plates at 70,000 cells per well in hepatocyte plating media (HPM, final concentrations: 1× Dulbecco's Modified Eagle's Medium, 0.1 μM dexamethasone, 10% fetal bovine serum, 1× ITS, 1×PSG) followed by incubation at 37° C. under 5% CO2 and 90% relative humidity for 2 days to allow hepatocytes to form a confluent layer. On Day 3, hepatocytes were treated with either test compound or rifampin (20 μM, positive control for CYP3A induction) prepared in hepatocyte incubation media ((HIM, final concentrations: 1× William's Medium E, 0.1 μM dexamethasone, 1×ITS, 1×PSG). Treatment was performed for 72 hours with either 2 concentrations (2 μM or 10 μM) or a range of concentrations (0.001 μM to 100 μM) of the test compound to obtain full dose-response curve. Fresh media containing the relevant concentrations of the test compound was replaced every day until the samples were processed. After 72 hours of incubation, samples were processed for mRNA analysis using bDNA technology using manufacturer's instructions (Affymetrix, Fremont, Calif.). Cell viability was tested at the end of the experiment using MTT assay kit (Roche Diagnostics, Basel, Switzerland). Data was analyzed and presented as percent of control (POC) and Emax and EC50 obtained when appropriate according to guidance from Center for Drug Evaluation and Research (CDER), 2006, Guidance for Industry, Drug Interaction Studies—Study Design, Data Analysis, and Implications for Dosing and Labeling.
# Cryopreserved human hepatocytes were seeded in 96-well collagen coated plates at 70,000 cells per well in hepatocyte plating media (HPM, final concentrations: 1× Dulbecco's Modified Eagle's Medium, 0.1 μM dexamethasone, 10% fetal bovine serum, 1×ITS, 1×PSG) followed by incubation at 37° C. under 5% CO2 and 90% relative humidity for 2 days to allow hepatocytes to form a confluent layer. On Day 3, hepatocytes were treated with either test compound or rifampin (20 μM, positive control for CYP3A induction) prepared in hepatocyte incubation media ((HIM, final concentrations: 1× William's Medium E, 0.1 μM dexamethasone, 1×ITS, 1×PSG). Treatment was performed for 72 hours with either 2 concentrations (2 μM or 10 μM) or a range of concentrations (0.001 μM to 100 μM) of the test compound to obtain full dose-response curve. Fresh media containing the relevant concentrations of the test compound was replaced every day until the samples were processed. After 72 hours of incubation, samples were processed for mRNA analysis using bDNA technology using manufacturer's instructions (Affymetrix, Fremont, Calif.). Cell viability was tested at the end of the experiment using MTT assay kit (Roche Diagnostics, Basel, Switzerland). Data was analyzed and presented as percent of control (POC) and Emax and EC50 obtained when appropriate, as described in Halladay, J. et al, 2012, An “all-inclusive” 96-well cytochrome P450 induction method: Measuring enzyme activity, mRNA levels, protein levels, and cytotoxicity from one well using cryopreserved human hepatocytes, Pharmacological and Toxicological Methods, 66:270-275.
# The cytochrome P450 (CYP) is a well-known superfamily of enzymes that are responsible for the oxidative and reductive metabolic transformation of medications used in clinical practice. In addition, the CYP enzymes are commonly associated with causing many clinically relevant drug-drug interactions. Of the CYP enzymes, CYP3A4 is not only the most prevalent CYP enzyme in the liver and intestine, but is responsible for metabolism and elimination of approximately 50% of marketed drugs. In addition, CYP3A4 activity can be induced (or increased) or inhibited (decreased) in response to administration of certain drugs, thereby affecting concentrations of their own or certain concomitant drugs present in the body. […]
row,SMILES,CYP3A4 mRNA Induct Hu 10 uM POC
1,"COc1cc([C@H]2C[C@@H]2C(F)(F)F)c(Cl)cc1-n1c(=O)ccc2cc(S(=O)(=O)Nc3ncccn3)ccc21 (atropisomer, axis not shown; (P)) [Example 12, (P)-1-(5-chloro-2-methoxy-4-((1S,2S)-2-(trifluoromethyl)cyclopropyl)phenyl)-2-oxo-N-(pyrimidin-2-yl)-1,2-dihydroquinoline-6-sulfonamide]",29.85%
2,"COc1cc([C@@H]2C[C@H]2C(F)(F)F)c(Cl)cc1-n1c(=O)ccc2cc(S(=O)(=O)Nc3ncccn3)ccc21 (atropisomer, axis not shown; (P)) [Example 13, (P)-1-(5-chloro-2-methoxy-4-((1R,2R)-2-(trifluoromethyl)cyclopropyl)phenyl)-2-oxo-N-(pyrimidin-2-yl)-1,2-dihydroquinoline-6-sulfonamide]",92.47%
3,"COc1cc([C@@H]2C[C@H]2C(F)(F)F)c(F)cc1-n1c(=O)ccc2cc(S(=O)(=O)Nc3cccnn3)ccc21 (atropisomer, axis not shown; (P)) [Example 16, (P)-1-(5-fluoro-2-methoxy-4-((1R,2R)-2-(trifluoromethyl)cyclopropyl)phenyl)-2-oxo-N-(pyridazin-3-yl)-1,2-dihydroquinoline-6-sulfonamide]",27.11%
4,"COc1cc([C@H]2C[C@@H]2C(F)(F)F)c(F)cc1-n1c(=O)ccc2cc(S(=O)(=O)Nc3cccnn3)ccc21 (atropisomer, axis not shown; (P)) [Example 17, (P)-1-(5-fluoro-2-methoxy-4-((1S,2S)-2-(trifluoromethyl)cyclopropyl)phenyl)-2-oxo-N-(pyridazin-3-yl)-1,2-dihydroquinoline-6-sulfonamide]",37.04%
5,"COc1cc([C@@H]2C[C@H]2C(F)(F)F)c(Cl)cc1-n1c(=O)ccc2cc(S(=O)(=O)Nc3ccon3)ccc21 (atropisomer, axis not shown; (P)) [Example 18, (P)-1-(5-chloro-2-methoxy-4-((1R,2R)-2-(trifluoromethyl)cyclopropyl)phenyl)-N-(isoxazol-3-yl)-2-oxo-1,2-dihydroquinoline-6-sulfonamide]",9.92%
6,"COc1cc([C@H]2C[C@@H]2C(F)(F)F)c(Cl)cc1-n1c(=O)ccc2cc(S(=O)(=O)Nc3ccon3)ccc21 (atropisomer, axis not shown; (P)) [Example 19, (P)-1-(5-chloro-2-methoxy-4-((1S,2S)-2-(trifluoromethyl)cyclopropyl)phenyl)-N-(isoxazol-3-yl)-2-oxo-1,2-dihydroquinoline-6-sulfonamide]",85.5%
7,"COc1cc([C@@H]2C[C@H]2C(F)(F)F)c(F)cc1-n1c(=O)ccc2cc(S(=O)(=O)Nc3ncccn3)ccc21 (atropisomer, axis not shown; (P)) [Example 20, (P)-1-(5-fluoro-2-methoxy-4-((1R,2R)-2-(trifluoromethyl)cyclopropyl)phenyl)-2-oxo-N-(pyrimidin-2-yl)-1,2-dihydroquinoline-6-sulfonamide]",67.47%
8,"COc1cc([C@H]2C[C@@H]2C(F)(F)F)c(F)cc1-n1c(=O)ccc2cc(S(=O)(=O)Nc3ncccn3)ccc21 (atropisomer, axis not shown; (P)) [Example 21, (P)-1-(5-fluoro-2-methoxy-4-((1S,2S)-2-(trifluoromethyl)cyclopropyl)phenyl)-2-oxo-N-(pyrimidin-2-yl)-1,2-dihydroquinoline-6-sulfonamide]",34.81%
9,"COc1cc(C2(C(F)(F)F)CC2)c(F)cc1-n1c(=O)ccc2cc(S(=O)(=O)Nc3ncccn3)ccc21 (atropisomer, axis not shown; (P)) [Example 23, (P)-1-(5-fluoro-2-methoxy-4-(1-(trifluoromethyl)cyclopropyl)phenyl)-2-oxo-N-(pyrimidin-2-yl)-1,2-dihydroquinoline-6-sulfonamide]",85.95%
10,"COc1cc(C2(C(F)(F)F)CC2)c(Cl)cc1-n1c(=O)ccc2cc(S(=O)(=O)Nc3ccon3)ccc21 (atropisomer, axis not shown; (P)) [Example 24, (P)-1-(5-chloro-2-methoxy-4-(1-(trifluoromethyl)cyclopropyl)phenyl)-N-(isoxazol-3-yl)-2-oxo-1,2-dihydroquinoline-6-sulfonamide]",100.7%
11,"COc1cc(C2(C(F)(F)F)CC2)c(Cl)cc1-n1c(=O)ccc2cc(S(=O)(=O)Nc3ncccn3)ccc21 (atropisomer, axis not shown; (P)) [Example 25, (P)-1-(5-chloro-2-methoxy-4-(1-(trifluoromethyl)cyclopropyl)phenyl)-2-oxo-N-(pyrimidin-2-yl)-1,2-dihydroquinoline-6-sulfonamide]",88.68%
12,"COc1cc([C@@H]2C[C@H]2C(F)(F)F)c(C)cc1-n1c(=O)ccc2cc(S(=O)(=O)Nc3ncccn3)ccc21 (atropisomer, axis not shown; (P)) [Example 28, (P)-1-(2-methoxy-5-methyl-4-((1R,2R)-2-(trifluoromethyl)cyclopropyl)phenyl)-2-oxo-N-(pyrimidin-2-yl)-1,2-dihydroquinoline-6-sulfonamide]",23.36%

# More lines, now with the values ahead:
row,CYP3A4 mRNA Induct Hu 10 uM POC,SMILES
1,15.9%,"COc1cc([C@H]2C[C@@H]2C(F)(F)F)c(F)cc1-n1c(=O)ccc2cc(S(=O)(=O)Nc3ccon3)ccc21 (atropisomer, axis not shown; (P)) [Example 4, (P)-1-(5-fluoro-2-methoxy-4-((1S,2S)-2-(trifluoromethyl)cyclopropyl)phenyl)-N-(isoxazol-3-yl)-2-oxo-1,2-dihydroquinoline-6-sulfonamide]"
2,41.96%,"COc1cc([C@@H]2C[C@H]2C(F)(F)F)c(F)cc1-n1c(=O)ccc2cc(S(=O)(=O)Nc3ccon3)ccc21 (atropisomer, axis not shown; (P)) [Example 5, (P)-1-(5-fluoro-2-methoxy-4-((1R,2R)-2-(trifluoromethyl)cyclopropyl)phenyl)-N-(isoxazol-3-yl)-2-oxo-1,2-dihydroquinoline-6-sulfonamide]"
3,25.49%,"COc1cc([C@@H]2C[C@H]2C)c(F)cc1-n1c(=O)ccc2cc(S(=O)(=O)Nc3ccon3)ccc21 (atropisomer, axis not shown; (P)) [Example 6, (P)-1-(5-fluoro-2-methoxy-4-((1R,2R)-2-methylcyclopropyl)phenyl)-N-(isoxazol-3-yl)-2-oxo-1,2-dihydroquinoline-6-sulfonamide]"
4,41.2%,"COc1cc([C@H]2C[C@@H]2C)c(F)cc1-n1c(=O)ccc2cc(S(=O)(=O)Nc3ccon3)ccc21 (atropisomer, axis not shown; (P)) [Example 7, (P)-1-(5-fluoro-2-methoxy-4-((1S,2S)-2-methylcyclopropyl)phenyl)-N-(isoxazol-3-yl)-2-oxo-1,2-dihydroquinoline-6-sulfonamide]"
5,27.54%,"COc1cc([C@@H]2C[C@H]2c2ccccc2)c(F)cc1-n1c(=O)ccc2cc(S(=O)(=O)Nc3ccon3)ccc21 (atropisomer, axis not shown; (P)) [Example 8, (P)-1-(5-fluoro-2-methoxy-4-((1R,2R)-2-phenylcyclopropyl)phenyl)-N-(isoxazol-3-yl)-2-oxo-1,2-dihydroquinoline-6-sulfonamide]"
6,37.165%,"COc1cc([C@H]2C[C@@H]2c2ccccc2)c(F)cc1-n1c(=O)ccc2cc(S(=O)(=O)Nc3ccon3)ccc21 (atropisomer, axis not shown; (P)) [Example 9, (P)-1-(5-fluoro-2-methoxy-4-((1S,2S)-2-phenylcyclopropyl)phenyl)-N-(isoxazol-3-yl)-2-oxo-1,2-dihydroquinoline-6-sulfonamide]"

# Source: US11807634B2, “Cyclopropyl dihydroquinoline sulfonamide compounds” (AMGEN INC., priority 2020, dated 2023)
